Values after ≈ are worked out from the molar mass of the structure shown.
What was measured:
Type in all cases: functional
Streptococcus suis [1] = assay: Antimicrobial activity against Streptococcus suis CA isolated from cerebrospinal fluid of patient with meningitis by broth microdilution method
Streptococcus suis [2] = assay: Antimicrobial activity against Streptococcus suis UD isolated from cerebrospinal fluid of patient with meningitis by broth microdilution method
Streptococcus pyogenes = assay: Ratio of MIC for Streptococcus pyogenes 12RF transconjugant harboring ermB and tetW gene from Streptococcus suis UD to wild type Streptococcus suis UD

SMILES	MIC (Streptococcus suis [1]) [µg/mL]	MIC (Streptococcus suis [2]) [µg/mL]	Ratio (Streptococcus pyogenes)
CC[C@H]1OC(=O)[C@H](C)[C@@H](O[C@H]2C[C@@](C)(OC)[C@@H](O)[C@H](C)O2)[C@H](C)[C@@H](O[C@@H]2O[C@H](C)C[C@H](N(C)C)[C@H]2O)[C@](C)(O)C[C@@H](C)C(=O)[C@H](C)[C@@H](O)[C@]1(C)O [ERYTHROMYCIN]	> 256	4 (≈ 5.45 µM)	–
NC[C@H]1O[C@H](O[C@H]2[C@H](O)[C@@H](O[C@H]3O[C@H](CO)[C@@H](O)[C@H](N)[C@H]3O)[C@H](N)C[C@@H]2N)[C@H](O)[C@@H](O)[C@@H]1O [KANAMYCIN]	–	–	16
CN[C@@H]1[C@H](O[C@H]2[C@H](O[C@H]3[C@H](O)[C@@H](O)[C@H](N=C(N)N)[C@@H](O)[C@@H]3N=C(N)N)O[C@@H](C)[C@]2(O)C=O)O[C@@H](CO)[C@H](O)[C@H]1O [STREPTOMYCIN]	–	–	8
CN(C)[C@@H]1C(O)=C(C(N)=O)C(=O)[C@@]2(O)C(O)=C3C(=O)c4c(O)cccc4[C@@](C)(O)[C@H]3C[C@@H]12 [TETRACYCLINE]	16 (≈ 36 µM)	8 (≈ 18 µM)	–

— ChEMBL document CHEMBL1687842, “Different genetic elements carrying the tet(W) gene in two human clinical isolates of Streptococcus suis” (2011)
